Data from the supplement of paper PMC5579334.

What was measured:
S1507-2 [1] = test: relative IC50 (inflection point of fitted dose-response curve, CellTox-Green cytotoxicity, 72 h; top asymptote may be below 50%); higher = less potent
Procedure, shortened: (§1)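 For 72 h at 37 °C, MPNST cell lines and primary human Schwann cells were exposed in 384-well plates to five 10-fold compound dilutions. CellTox-Green, added before seeding at a final 1:1000 dilution, gave fluorescence from DNA released by disrupted cells. Signals were scaled to vehicle and positive-control wells, cultures failing plate quality control were left out, and four-parameter logistic fits were applied. Relative IC50 and drug sensitivity score were derived from the fits, with IC50 censored at the top concentration.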

STS26T [2] = test: as above
Procedure, shortened: as §1

ST8814 [3] = test: as above
Procedure, shortened: as §1

HS-PSS [4] = test: as above
Procedure, shortened: as §1

HSC2 [5] = test: as above
Procedure, shortened: as §1

HSC1 [6] = test: as above
Procedure, shortened: as §1

S462 = test: relative IC50 (inflection point of fitted dose-response curve, CellTiter-Glo viability, 72 h; top asymptote may be below 50% inhibition); higher = less potent
Procedure, shortened: (§2)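 MPNST cell lines and primary human Schwann cells were seeded at 750–1000 cells per well into 384-well plates preprinted with each compound at five concentrations in 10-fold steps, then incubated 72 h at 37 °C, 5% CO2. CellTiter-Glo ATP luminescence gave viability, scaled between vehicle and positive-control wells, with duplicates averaged where present. Curves were fitted with a four-parameter logistic model. Percent inhibition refers to the top concentration, while drug sensitivity score and relative IC50, censored at the top concentration, come from these fits.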

HS-Sch-2 = test: as above
Procedure, shortened: as §2

S1507-2 [7] = test: as above
Procedure, shortened: as §2

STS26T [8] = test: as above
Procedure, shortened: as §2

ST8814 [9] = test: as above
Procedure, shortened: as §2

HS-PSS [10] = test: as above
Procedure, shortened: as §2

YST-1 = test: as above
Procedure, shortened: as §2

HSC2 [11] = test: as above
Procedure, shortened: as §2

HSC1 [12] = test: as above
Procedure, shortened: as §2

| Structure (SMILES) | relative IC50 (S1507-2 [1]) [nM] | relative IC50 (STS26T [2]) [nM] | relative IC50 (ST8814 [3]) [nM] | relative IC50 (HS-PSS [4]) [nM] | relative IC50 (HSC2 [5]) [nM] | relative IC50 (HSC1 [6]) [nM] | relative IC50 (S462) [nM] | relative IC50 (HS-Sch-2) [nM] | relative IC50 (S1507-2 [7]) [nM] | relative IC50 (STS26T [8]) [nM] | relative IC50 (ST8814 [9]) [nM] | relative IC50 (HS-PSS [10]) [nM] | relative IC50 (YST-1) [nM] | relative IC50 (HSC2 [11]) [nM] | relative IC50 (HSC1 [12]) [nM] |
| --- | --- | --- | --- | --- | --- | --- | --- | --- | --- | --- | --- | --- | --- | --- | --- |
| C=CCNC1=C2C[C@@H](C)C[C@H](OC)[C@H](O)[C@@H](C)/C=C(\C)[C@H](OC(N)=O)[C@@H](OC)/C=C\C=C(/C)C(=O)NC(=CC1=O)C2=O [Tanespimycin] | 397 | 160 | 729 | 460 | 258 | 321 | 310 | 128 | 170 | 108 | 158 | 157 | 49.4 | 380 | 421 |
| O=C(Nc1c[nH]nc1-c1nc2ccc(CN3CCOCC3)cc2[nH]1)NC1CC1 [AT9283] | 167 | 145 | 31.9 | > 1000 | 276 | 231 | 122 | 332 | 94.6 | 172 | 60.2 | 178 | 139 | 79.6 | 83.1 |
| CC[C@@]1(O)C(=O)OCc2c1cc1n(c2=O)Cc2cc3c(CN(C)C)c(O)ccc3nc2-1 [Topotecan] | 550 | 197 | 23.3 | 869 | 237 | 50.8 | 52.4 | 136 | 173 | 202 | 42.5 | 323 | 44.1 | 90.9 | 123 |
| Cn1cc(CNCC2CCN(c3ncc(C(=O)NO)cn3)CC2)c2ccccc21 [Quisinostat] | 44.8 | 105 | 56.1 | 131 | 226 | 208 | 20.4 | 45.5 | 18.3 | 43.4 | 16.6 | 42.8 | 8.58 | 56.8 | 34.5 |
| CCOc1cc2ncc(C#N)c(Nc3ccc(OCc4ccccn4)c(Cl)c3)c2cc1NC(=O)/C=C/CN(C)C [Neratinib] | > 1000 | > 1000 | > 1000 | > 1000 | > 1000 | > 1000 | 203 | 184 | 187 | 178 | 146 | 160 | 327 | 211 | 251 |
| Nc1nc(NC2CC2)cc(-c2cccc(Cl)c2Cl)n1 [TH588] | 4040 | 3540 | 5560 | > 25000 | 3820 | 4520 | 6910 | 4160 | 4360 | 3710 | 3830 | 3820 | 3620 | 4280 | 5430 |
| COc1cc(Nc2c(C#N)cnc3cc(OCCCN4CCN(C)CC4)c(OC)cc23)c(Cl)cc1Cl [Bosutinib] | 3200 | 2950 | 2410 | 3310 | 3250 | 3330 | 1490 | 1600 | 1410 | 1270 | 1460 | 3430 | 2590 | 1140 | 1700 |
| CNC(=O)c1cc(Oc2ccc(NC(=O)Nc3cc(C(C)(C)C)nn3-c3ccc4ncccc4c3)c(F)c2)ccn1 [Rebastinib] | > 1000 | > 1000 | > 1000 | > 1000 | > 1000 | > 1000 | > 1000 | > 1000 | > 1000 | > 1000 | > 1000 | > 1000 | > 1000 | > 1000 | > 1000 |
| CC(C)(C#N)c1cc(Cn2cncn2)cc(C(C)(C)C#N)c1 [Anastrozole] | > 10000 | > 10000 | > 10000 | > 10000 | > 10000 | > 10000 | > 10000 | > 10000 | > 10000 | > 10000 | > 10000 | > 10000 | > 10000 | > 10000 | > 10000 |
| CO[C@H]1/C=C\C=C(/C)C(=O)NC2=CC(=O)C(NCCN(C)C)=C(C[C@@H](C)C[C@H](OC)[C@H](O)[C@@H](C)/C=C(\C)[C@@H]1OC(N)=O)C2=O [Alvespimycin] | 106 | 95.7 | 106 | 49 | 187 | 198 | 48.1 | 47.3 | 78.4 | 72 | 54.9 | 45.5 | 24.4 | 134 | 132 |
| CC(=O)O[C@H]1C(=O)[C@@]2(C)[C@H]([C@H](OC(=O)c3ccccc3)[C@]3(O)C[C@H](OC(=O)[C@H](O)[C@@H](NC(=O)c4ccccc4)c4ccccc4)C(C)=C1C3(C)C)[C@]1(OC(C)=O)CO[C@@H]1C[C@@H]2O [Paclitaxel] | 42.3 | 1.72 | 25 | > 1000 | 19 | 24.4 | 3.84 | 8.71 | 18.5 | 4.63 | 21.7 | 6.92 | 3.83 | 8.36 | 8.18 |
| CO[C@H]1[C@@H](N(C)C(=O)c2ccccc2)C[C@@H]2O[C@@]1(C)n1c3ccccc3c3c4c(c5c6ccccc6n2c5c31)C(=O)NC4 [Midostaurin] | 395 | 323 | 274 | > 10000 | 243 | 901 | 580 | 409 | 282 | 436 | 443 | 465 | 163 | 155 | 112 |
| Nc1ccccc1NC(=O)c1ccc(CNc2nccc(-c3cccnc3)n2)cc1 [Mocetinostat] | 3730 | 1720 | 3100 | 2650 | 2710 | 3390 | 354 | 1400 | 1840 | 1400 | 1610 | 2200 | 530 | 818 | 921 |
| CC(=O)[C@]1(O)Cc2c(O)c3c(c(O)c2[C@@H](O[C@H]2C[C@H](N)[C@H](O)[C@H](C)O2)C1)C(=O)c1ccccc1C3=O [Idarubicin] | 54.1 | 10.8 | 27 | 162 | 204 | 107 | 9.47 | 39.7 | 25.6 | 14.4 | 24.9 | 103 | 8.54 | 22.6 | 19.7 |
| CNC(=O)c1cccc(-c2ccc3c(N4CCOC[C@@H]4C)nc(N4CCOC[C@@H]4C)nc3n2)c1 [AZD2014] | > 10000 | > 10000 | > 10000 | > 10000 | > 10000 | > 10000 | 364 | 366 | 335 | 401 | 654 | 505 | 119 | 322 | 306 |
| Nc1ccn([C@@H]2O[C@H](CO)[C@@H](O)C2(F)F)c(=O)n1 [Gemcitabine] | 2.65 | 1.22 | 3.86 | 50.4 | 5.47 | 8.57 | 0.481 | 2.09 | 0.876 | 1.59 | 4.13 | 19.9 | 8.34 | 2 | 2.2 |
| NS(=O)(=O)OC[C@@H]1C[C@@H](n2ccc3c(N[C@H]4CCc5ccccc54)ncnc32)C[C@@H]1O [Pevonedistat] | 291 | 137 | 201 | 222 | 1220 | 737 | 95.2 | 46.8 | 208 | 520 | 187 | 89.6 | 128 | 380 | 513 |
| CC1(COc2ccc3c(c2)ncn3-c2ccc3cccc(N4CCC(N)CC4)c3n2)COC1 [Crenolanib] | 1950 | 3240 | 1980 | 3150 | 3310 | 2930 | 3270 | 1250 | 2280 | 2710 | 1750 | 3640 | 3310 | 2430 | 2670 |
| O=NN(CCCl)C(=O)NC1CCCCC1 [Lomustine] | > 10000 | > 10000 | > 10000 | > 10000 | > 10000 | > 10000 | > 10000 | > 10000 | > 10000 | > 10000 | > 10000 | > 10000 | > 10000 | > 10000 | > 10000 |
| C[C@@]1(C(=O)Nc2ccc(F)nc2)CCCN1c1nc(Nc2cc(C3CC3)n[nH]2)c2cccn2n1 | 1650 | 279 | 312 | 3330 | 1400 | 2360 | 307 | 1150 | 495 | 663 | 534 | 1650 | 18.2 | 308 | 441 |
| CO[C@H]1C[C@@H]2CC[C@@H](C)[C@@](O)(O2)C(=O)C(=O)N2CCCC[C@H]2C(=O)O[C@H]([C@H](C)C[C@@H]2CC[C@@H](OP(C)(C)=O)[C@H](OC)C2)CC(=O)[C@H](C)/C=C(\C)[C@@H](O)[C@@H](OC)C(=O)[C@H](C)C[C@H](C)/C=C/C=C/C=C/1C [Ridaforolimus] | > 100 | > 100 | > 100 | > 100 | > 100 | > 100 | 1.26 | 2.85 | 1.55 | 0.663 | 0.496 | 1.87 | 1.02 | 0.319 | 0.221 |
| CN[C@@H]1C[C@H]2O[C@@](C)([C@@H]1OC)n1c3ccccc3c3c4c(c5c6ccccc6n2c5c31)C(=O)N[C@H]4O [UCN-01] | 159 | 24.9 | 257 | 2130 | 158 | 459 | 29.5 | 63.3 | 19.3 | 44.3 | 51.9 | 121 | 85.9 | 24.8 | 44.8 |
| Nc1ncnc2c1nc(N)n2[C@@H]1O[C@H](CO)[C@@H](O)[C@H]1O [8-amino-adenosine] | 2820 | 1060 | 1730 | 4130 | 7010 | 6650 | 1080 | 1230 | 885 | 1100 | 1110 | 1620 | 647 | 2250 | 1360 |
